Laboratory results: ChEMBL document CHEMBL6134915, “Novel Sulfonamide Derivatives as Nav1.5 Sodium Channel Blockers for Treating Atrial Fibrillation” (ACS Med Chem Lett, 2025)

Legend:
Type in all cases: cell-based
[1] = target: T1, Sodium channel protein type 5 subunit alpha (Homo sapiens, UniProt Q14524); experiment: Inhibition of human Nav1.5 expressed in CHO-K1 cells preincubated for 3 mins followed by incubation under atrial fibrillation-mimicking condition at 5 Hz with -85 mV holding potential for 12 sec by automated Qpatch electrophysiological recording
[2] = target: T1, Sodium channel protein type 5 subunit alpha; experiment: Inhibition of human Nav1.5 expressed in CHO-K1 cells preincubated for 3 mins followed by incubation under ventricular condition at sinus rate at 1 Hz with -100 mV holding potential for 25 sec by automated Qpatch electrophysiological recording
[3] = target: T1, Sodium channel protein type 5 subunit alpha; experiment: Inhibition of human Nav1.5 expressed in CHO-K1 cells preincubated with compound for 3 mins in presence of ATXII followed by incubation under ventricular condition at sinus rate at 1 Hz with -100 mV holding potential for 25 sec by automated Qpatch electrophysiological recording

T1 sequence (Q14524 whole entry): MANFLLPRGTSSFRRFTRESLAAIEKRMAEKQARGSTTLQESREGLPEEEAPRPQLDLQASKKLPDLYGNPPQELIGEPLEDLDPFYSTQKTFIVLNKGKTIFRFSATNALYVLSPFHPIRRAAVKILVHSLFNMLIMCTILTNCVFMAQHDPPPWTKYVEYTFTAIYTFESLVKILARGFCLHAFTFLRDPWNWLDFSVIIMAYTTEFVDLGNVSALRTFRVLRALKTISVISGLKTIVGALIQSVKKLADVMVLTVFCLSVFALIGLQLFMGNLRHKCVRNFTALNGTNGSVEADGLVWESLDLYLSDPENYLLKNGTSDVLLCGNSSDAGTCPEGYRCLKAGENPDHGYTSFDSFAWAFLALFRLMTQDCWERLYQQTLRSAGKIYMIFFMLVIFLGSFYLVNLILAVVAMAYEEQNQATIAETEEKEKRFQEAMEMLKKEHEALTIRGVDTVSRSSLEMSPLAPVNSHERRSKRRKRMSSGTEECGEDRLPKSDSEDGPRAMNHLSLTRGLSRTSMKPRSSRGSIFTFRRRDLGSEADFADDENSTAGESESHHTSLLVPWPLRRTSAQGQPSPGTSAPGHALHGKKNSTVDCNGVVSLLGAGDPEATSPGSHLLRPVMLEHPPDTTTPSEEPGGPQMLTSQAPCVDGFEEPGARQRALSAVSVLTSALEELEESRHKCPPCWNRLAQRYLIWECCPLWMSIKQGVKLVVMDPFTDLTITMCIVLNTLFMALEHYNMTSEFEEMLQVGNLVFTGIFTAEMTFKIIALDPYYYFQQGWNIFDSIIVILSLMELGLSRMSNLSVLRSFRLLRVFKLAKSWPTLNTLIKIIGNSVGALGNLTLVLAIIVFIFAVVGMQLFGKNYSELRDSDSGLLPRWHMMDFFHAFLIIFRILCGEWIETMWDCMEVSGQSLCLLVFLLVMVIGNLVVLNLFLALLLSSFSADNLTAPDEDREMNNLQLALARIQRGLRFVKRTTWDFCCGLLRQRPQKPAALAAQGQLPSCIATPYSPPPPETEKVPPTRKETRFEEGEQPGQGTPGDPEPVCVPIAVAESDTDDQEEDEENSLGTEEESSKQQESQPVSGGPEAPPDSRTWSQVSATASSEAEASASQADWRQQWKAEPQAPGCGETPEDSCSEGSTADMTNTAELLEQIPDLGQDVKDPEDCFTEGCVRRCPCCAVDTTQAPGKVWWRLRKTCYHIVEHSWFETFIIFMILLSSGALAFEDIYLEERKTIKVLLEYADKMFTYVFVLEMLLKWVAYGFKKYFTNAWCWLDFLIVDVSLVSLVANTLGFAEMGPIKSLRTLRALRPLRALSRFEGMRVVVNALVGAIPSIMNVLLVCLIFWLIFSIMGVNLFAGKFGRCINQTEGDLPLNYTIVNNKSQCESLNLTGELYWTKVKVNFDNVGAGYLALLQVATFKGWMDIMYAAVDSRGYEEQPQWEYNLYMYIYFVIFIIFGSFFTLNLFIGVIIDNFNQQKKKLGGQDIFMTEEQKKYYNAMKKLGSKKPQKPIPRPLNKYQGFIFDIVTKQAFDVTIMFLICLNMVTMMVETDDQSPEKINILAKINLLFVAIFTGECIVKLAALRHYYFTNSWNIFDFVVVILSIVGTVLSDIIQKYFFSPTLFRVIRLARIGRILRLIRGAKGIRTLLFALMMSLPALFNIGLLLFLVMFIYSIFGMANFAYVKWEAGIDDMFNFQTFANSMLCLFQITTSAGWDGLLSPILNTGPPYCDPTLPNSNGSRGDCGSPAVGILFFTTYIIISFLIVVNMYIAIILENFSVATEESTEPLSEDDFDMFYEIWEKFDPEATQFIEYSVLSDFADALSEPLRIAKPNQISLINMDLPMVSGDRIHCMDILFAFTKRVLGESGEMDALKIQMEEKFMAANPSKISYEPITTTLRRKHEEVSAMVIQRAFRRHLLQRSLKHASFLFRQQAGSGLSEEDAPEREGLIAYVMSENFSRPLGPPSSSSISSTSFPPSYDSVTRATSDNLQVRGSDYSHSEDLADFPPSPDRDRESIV

Compound	IC50 [1]	IC50 [2]	IC50 [3]
C[C@@](O)(CS(N)(=O)=O)c1cccc(-c2nnn(Cc3cc(OC(F)(F)F)ccc3F)n2)n1	1 µM		
C[C@@](O)(CS(N)(=O)=O)c1ccc(F)c(-c2nnn(Cc3cc(OC(F)(F)F)ccc3F)n2)c1	1 µM	> 30 µM	11 µM
C[C@@](O)(CS(N)(=O)=O)c1ccc(Cl)c(-c2nnn(Cc3cc(OC(F)(F)F)ccc3F)n2)c1	1.3 µM	> 30 µM	28 µM
C[C@](O)(CS(N)(=O)=O)c1cccc(-c2nnn(Cc3cc(OC(F)(F)F)ccc3F)n2)n1	0.8 µM		
C[C@](O)(CS(N)(=O)=O)c1ccc(Cl)c(-c2nnn(Cc3cc(OC(F)(F)F)ccc3F)n2)c1	1.3 µM	28 µM	15 µM
